Data on 4 compounds can be found in US12612637B2, “Compositions and methods for DHFR tunable protein regulation” (Obsidian Therapeutics, Inc., priority 2019, dated 2026).

Where two headings read alike, the source gives them in different places.

The conditions of data set [1]: cited from earlier work; for Duration of action: in vivo.
The test system of another data set is Jurkat cells. Briefly: FACS GFP expression of transduced Jurkat cells treated with DMSO, 2 μM or 50 μM TMP. Type of data set: cell-based. The settings on record: 2 μM TMP or 50 μM TMP, 24 hours. The procedure: Clones selected from the final library after 4 rounds of sorting were cloned into pLVX.AcGFP.P2A.mcherry constructs and transduced into Jurkat cells for further characterization of DD activity. Transduced Jurkat cells were plated using 500,000 cells per well (1 ml total volume per well in 24 well plate) in duplicate for each condition. Cells were treated with DMSO (control), 2 μM TMP or 50 μM trimethoprim (TMP) for 24 hours prior to fluorescent activated cell sorting (FACS). Cells were characterized by FACS to determine their levels of GFP in the presence and absence of TMP.

Take `CN(Cc1cnc2nc(N)nc(N)c2n1)c1ccc(C(=O)N[C@@H](CCC(=O)O)C(=O)O)cc1` [Methotrexate]: the Duration of action in data set [1] is >12 h.

One may read the Cmax as the maximum level reached in the sampled fluid or tissue. Take `COc1cc(Cc2cnc(N)nc2N)cc(OC)c1OC` [Trimethoprim]: the Cmax is 25 µM in data set [1] (IV) and 1 µM in data set [1] (PO). Also, in data set [1], the Duration of action was 2 to 72 h.

Regarding “hDHFR-045: hDHFR (Y122I) library clone cloned into pLVX.AcGFP.P2A.mcherry construct”, in the data set with Jurkat cells, the “GFP expression upon addition of TMP” value is reported as “higher levels of GFP expression upon addition of TMP”.

With “hDHFR-046: hDHFR (Y122I) library clone cloned into pLVX.AcGFP.P2A.mcherry construct”, the “GFP expression upon addition of TMP” value in the data set on Jurkat cells was “higher levels of GFP expression upon addition of TMP”.
